Laboratory results taken from patent US20110166066A1, “CATESTATIN (CST) AND ITS VARIANTS FOR TREATMENT OF CARDIOVASCULAR AND METABOLIC DISORDERS” (priority 2008, published 2011).
“Also recorded” adds a separate entry of the source. Counter-ions that a name gives are not always drawn. Like-named read-outs stand apart in the source and are kept apart here. No end group written: not given here.

B1: vasostatin: another peptide derived from CgA, inhibited angiogenesis induced by VEGF (peptide, UniProt P10645 19-94, looked up)
Vasostatin-1: LPVNSPMNKGDTEVMKCIVEVISDTLSKPSPMPVSQECFETLRGDERILSILRHQNLLKELQDLALQGAKERAHQQ
modifications: Vasostatin-1

Experiments:
[1] = test system: Langendorff perfused rat heart; test: Isoproterenol stimulated Langendorff heart preparations; conditions: P370L-CST 165 nM, G364S-CST 200 nM; for ISO-induced stimulation of LVP (concentration-response): ISO 0.1 nM to 1 μM, WT-CST 33 and 110 nM
[2] = test system: Langendorff perfused rat heart; test: as above; conditions: for Coronary pressure (ISO alone or ISO + peptide) / Inotropism (ISO alone or ISO + peptide) / Lusitropism (ISO alone or ISO + peptide): Table 3, ISO 5 nM; for ISO stimulatory effect on LVP: measured at 5 min
Method: Isoproterenol stimulated preparations—Cardiac preparations were stabilized for 20 min with KHs and then perfused with 5 nM ISO for 10 min. ISO was washed-out with KHs. After returning to control conditions, each heart was perfused with KHs containing a single concentration of WT-Cts […] or G364S-Cts (200 nM) with 5 nM ISO for a further 10 min.
To further describe the antagonistic action of either WT-Cts (33 nM), P370L-Cts (110 nM) or G364S-Cts (200 nM) against ISO-dependent stimulation, dose-response curves were generated by perfusing the heart preparations with KHs enriched with increasing concentrations of ISO (0.1 nM to 1 μM) alone. These curves were then compared to those obtained by exposing other cardiac preparations to the same perfusion medium containing increasing concentrations of ISO (0.1 nM to 1 μM) plus a single concentration of either WT-Cts (33 nM) or P370L-Cts (110 nM) or G364S-Cts (200 nM).
Statistics—Data are expressed as the mean±SEM. Curve fitting was accomplished in the program Kaleidagraph (Synergy Software, Reading, Pa.). Peptide EC50 and IC50 values were interpolated as the concentration that achieved 50% stimulation and inhibition, respectively. For analysis of phosphorylated proteins, levels were quantified using Bio-Rad QuantifyOne and volumes of phosphorylated proteins were divided by the levels of non-phosphorylated proteins to calculate fold activation. Stimulation of protein activity was expressed as fold increase over vehicle-treated control. The means and S.E.M. were calculated for each treatment. Multiple comparisons were made using either one-way ANOVA followed by Bonferroni's post-hoc test or two-way ANOVA. Statistical significance was concluded at p<0.05. Statistics were computed with the program InStat (GraphPad Software, Inc., San Diego, Calif.).
To characterize the inhibitory action of either WT-CST (11, 33 or 110 nM), G364S-CST (200 nM) or P370L-CST (110 nM) toward ISO-dependent stimulation of cardiac function, heart preparations were perfused with KHs containing increasing concentrations of ISO (0.1 nM to 1 μM) either alone or in combination with one of the three CST variants.

[3] = test system: WT and Chga knockout (KO) mice; test: Response to PE or SNP and baroreflex sensitivity in unconscious mice; format: in vivo; conditions: for Increase in SBP: 0.005 μg/g bw iv
Method: Unconscious mice. Surgical procedures for hemodynamic measurements: Hemodynamic evaluation in both WT and KO mice was performed under general anesthesia [ketamine (100 mg/kg) and xylazine (2.5 mg/kg)] while connected to a ventilator. LV pressure was monitored by Millar micromanometer catheter of size 1.4 French (0.46 mm; Millar Instruments, Houston, Tex.); it was inserted into the LV where phasic and mean pressure was continuously monitored (Gould, Cleveland, Ohio). A venous catheter (MicroRenathane tube MRE-033; Braintree Laboratories, Braintree, Mass.) is implanted on right femoral vein for injection of peptide and other reagents. All physiologic signals were acquired by WINDAQ (Dataq Instruments, Akron, Ohio) and analyzed by BP-Analysis software (developed for own laboratory).
Assessment of baroreflex sensitivity (BRS): BRS (in milliseconds per mmHg) was assessed by both high-pressure [phenylephrine (PE) bolus] and low-pressure [sodium nitroprusside (SNP) bolus] stimuli in unconscious mice. Although conscious animals provide optimal physiological data, a host of undesirable signals are triggered by physical activities, and sleep cycle alterations in behavioral state. Therefore, we have chosen to conduct the experiments in unconscious mice to avoid some of the pitfalls encountered in awake animals. The absolute changes of HR in response to changes in SBP induced by PE or SNP were subjected to linear regression analysis to determine BRS. To test the effect of CST on BRS in KO mice, CST was injected (40 μg/g bw iv) 30 min before the injection of PE or SNP through the catheter implanted into the femoral vein.
BRS to high-pressure stimulus. High pressure BRS was evaluated by recording diminution of HR in response to PE-induced hypertension. Changes in SBP and HR were recorded continuously for 0.5 min after a bolus injection of PE (0.005 μg/g bw iv). This dose was selected from a preliminary dose-response study (0.001-0.05 μg/g bw iv).
BRS to low-pressure stimulus. This was evaluated by recording increments in HR in response to SNP-induced fall in BP. Changes in SBP and HR were recorded continuously for 0.5 min after a bolus injection of SNP (0.05 μg/g bw iv). This dose was selected from a preliminary dose-response study (0.01-0.1 μg/g bw iv).

[4] = test system: Langendorff perfused rat heart; test: ET-1 stimulated Langendorff heart preparations; conditions: for ET-1 induced positive inotropism: ET-1 1 nM, WT-CST 33 nM, P370L-CST 110 nM, G364S-CST 200 nM
Method: ET-1 stimulated preparations—Hearts, stabilized for 20 min with KHs, were perfused for 10 min with ET-1 (1 nM) and then washed-out with KHs. After returning to control conditions, each heart was perfused with KHs containing a single concentration of either WT-Cts (33 nM), P370L-Cts (110 nM) or G364S-Cts (200 nM) plus 1 nM ET-1 for a further 10 min.

[5] = test system: sympathochromaffin cells; conditions: in vitro; cited from earlier work
[6] = test system: Langendorff perfused rat heart; test: Langendorff perfused rat heart, basal conditions: concentration-response of catestatin peptides; conditions: for Activity rank order / Inotropism / Lusitropism: basal conditions, Table 2
Description: Animals-Male Wistar rats (Morini, Bologna, Italy S.P.A.) weighing 180-250 g were housed (three per cage) in a ventilated cage rack system under standard conditions. Animals had food and water access ad libitum. The investigation conforms to the Guide for the Care and Use of Laboratory Animals, according to NIH Publication No. 85-23, revised 1996. Isolated heart preparation-Rats were anesthetized with ethyl carbamate (2 g/Kg rat, i.p.), the hearts rapidly excised and then transferred in ice-cold buffered Krebs-Henseleit solution (KHs). As previously described (23), the aorta was immediately cannulated with a glass cannula and connected to Langendorff apparatus to start perfusion at constant flow-rate (12 ml/min). Briefly, the apex of the left ventricle (LV) was pierced to avoid fluid accumulation. A water-filled latex balloon, connected to a pressure transducer ([…], Inc. USA), was inserted through mitral valve into the LV allowing isovolumic contractions and continuous mechanical parameters recording. Another pressure transducer located just above the aorta recorded coronary pressure (CP). […] Hemodynamic parameters were assessed using a PowerLab data acquisition system and analysed using Chart software (both purchased by ADInstruments, Basile, Italy). […] Curve fitting was accomplished in the program Kaleidagraph (Synergy Software, Reading, Pa.). Peptide EC50 and IC50 values were interpolated as the concentration that achieved 50% stimulation and inhibition, respectively. For analysis of phosphorylated proteins, levels were quantified using Bio-Rad QuantifyOne and volumes of phosphorylated proteins were divided by the levels of non-phosphorylated proteins to calculate fold activation. Stimulation of protein activity was expressed as fold increase over vehicle-treated control. The means and S.E.M. were calculated for each treatment. Multiple comparisons were made using either one-way ANOVA followed by Bonferroni's post-hoc test or two-way ANOVA. Statistical significance was concluded at p<0.05. Statistics were computed with the program InStat (GraphPad Software, Inc., San Diego, Calif.).

[7] = test system: ECs; conditions: cited from earlier work

Molecule	Coronary pressure (ISO alone or ISO + peptide) [2]	Inotropism (ISO alone or ISO + peptide) [2]	Lusitropism (ISO alone or ISO + peptide) [2]	ET-1 induced positive inotropism [4]	Rank order of potency, inhibition of catecholamine secretion [5]	ISO-induced stimulation of LVP (concentration-response) [1]	Activity rank order [6]	Inotropism [6]	Lusitropism [6]	ISO induced coronary dilation ([2]; ISO 5 nM)	ISO-induced positive lusitropism ([2]; ISO 5 nM)	Rank order of potency against ISO ([2]; ISO 5 nM)	ISO stimulatory effect on LVP ([2]; ISO 5 nM)	further results
CC(C)NCC(O)c1ccc(O)c(O)c1 (centres unmarked) [ISO, Isoproterenol hydrochloride, reference compound]	Vasodilation	Positive	Positive	–	–	–	–	–	–	–	–	–	–	EC50 ([1]; Rattus norvegicus, Table 3, values match WT-CST 110 nM, read-out: EC50 (ISO on LVP, alone or + peptide) (converted)): 2.14 nM; Effect of ISO alone on LVP ([2]; 5 nM to 1 μM): increased LVP significantly; EC50 ([2]; Rattus norvegicus, ISO alone, read-out: EC50 of ISO-mediated LVP stimulation (converted)): 2.14 nM
CNC[C@H](O)c1cccc(O)c1 [PE, phenylephrine]	–	–	–	–	–	–	–	–	–	–	–	–	–	PE-induced bradycardia ([3]; KO mice): completely abolished; Increase in SBP ([3]; KO mice): 45.6 mmHg; Decrease in HR ([3]; WT mice, 0.005 μg/g bw): 26 bpm; Increase in SBP ([3]; WT mice): 34.1 mmHg
G364S-CST: SEQ ID NO. 4 SSMKLSFRARAYSFRGPGPQL, naturally occurring Gly364Ser variant of catestatin (listed as Homo sapiens)	Abolished	Abolished	Abolished	blocked	Pro370Leu>wild-type (WT)>Gly364Ser>Arg374Gln; also recorded: Pro370Leu>wildtype (WT)>Gly364Ser>Arg374Gln	significantly inhibited	Activity: WT-CST > P370L-CST > G364S-CST	No effect	No effect	blocked	blocked	Order of potency: WT-CST > G364S-CST > P370L-CST	abolished	Other parameters tested (HR, LVP, +(LVdP/dT)max, −(LVdP/dT)max) ([6]; 11 to 200 nM): unaffected; Effect on RPP ([6]; even at 33 nM): significant increase; Block of ISO-dependent +(LVdP/dT)max ([2]; ISO 5 nM): > 100%; ISO-dependent decrease of T/−t ([2]; ISO 5 nM): blocked
P370L-CST: SEQ ID NO. 3 SSMKLSFRARAYGFRGPGLQL, naturally occurring Pro370Leu variant of catestatin (listed as Homo sapiens)	No effect	Abolished	Abolished	blocked	Pro370Leu>wild-type (WT)>Gly364Ser>Arg374Gln; also recorded: Pro370Leu>wildtype (WT)>Gly364Ser>Arg374Gln	significantly inhibited	Activity: WT-CST > P370L-CST > G364S-CST	Negative	No effect	remaining unchanged	failed to modulate	Order of potency: WT-CST > G364S-CST > P370L-CST	abolished	Concentration of maximum decrease in +(LVdP/dT)max [6]: 200 nM; Concentration of maximum decrease in LVP and RPP [6]: 200 nM; Effect on −(LVdP/dT)max [6]: marked decrease; Effect on CP (coronary pressure) ([6]; basal): not accompanied by changes; Effect on HR ([6]; basal, WT-Cts significant at 33 nM): not accompanied by changes; Inotropic effect (LVP, RPP) ([6]; from 110 to 200 nM): negative inotropism; Effect on +(LVdP/dT)max ([6]; starting from 110 nM): marked decrease
endothelin-1 (CSCSSLMDKECVYFCHLDIIW; ends and bridges not checked; cysteine pairing not given here; UniProt P05305 53-73, looked up) [ET-1, endothelin-1, purchased from Sigma, reference compound]	–	–	–	–	–	–	–	–	–	–	–	–	–	Effect on LVP and +(LVdP/dT)max ([4]; 1 nM): increased; Effect on coronary constriction ([4]; ET-1 alone 1 and 10 nM): significant increase in coronary constriction
B1	–	–	–	–	–	–	–	–	–	–	–	–	–	Concentration at which effects were found [7]: 330 nM
